According to patent publication US20250228865A1, “COMPOUNDS FOR ENHANCING READ THROUGH OF GENES CONTAINING PREMATURE TERMINATION CODONS AND METHODS FOR MAKING AND USING THE SAME” (Sanofi US Services Inc., priority 2022, published 2025):

Legend:
[1] = system: recombinant human CFTR carrying the premature stop codon (PTC) mutation R1162X; assay: CFTR-PTC mutant translation readthrough, Nanoluc tagged CFTR luminescence (R1162X cell line); assay type: cell-based; details: for CFTR R1162X ACTIVITY Fold 10 μM G-418: fold over 10 μM G-418, in combination with G418; for EC50: in combination with G418, 16HBE cells, read-out: CFTR R1162X ACTIVITY EC50
Experimental: (§1) 16HBE human bronchial epithelial cells (stably over-expressing recombinant human CFTR carrying the premature stop codon (PTC) mutation G542X or R1162X along with a Nanoluc tag incorporated into the CFTR channel within extracellular loop 4 in G542X cell line or C-terminus end in the R1162X cell line were seeded at 0.01×10^6 cells/well and grown in Minimal Essential Medium (MEM) as monolayers in 384 well plates and incubated at 37° C. with 5% CO2. Media was changed every other day until day of experiment. Agents to be evaluated were made up in separate 384 well, polypropylene plates at a 2X the final desired test concentration. Test agent 10-point concentration response curves were constructed using the Labcyte Echo 555 acoustic dispenser. Test agents were typically tested at a max final test concentrations of 50 μM with sequential 2-fold lower concentrations below this in the absence or presence of a fixed 10 μM concentration of the aminoglycoside G418 made up in MEM growth media (reduced Serum Media+HEPES Buffer+2.4 g/L Sodium Bicarbonate+L-Glutamine containing CFTR corrector VX-809 (3 μM)). Treatment with 10 μM G418 alone produced approximately 10% of the response observed with a maximally effective concentration of G418 (typically 125-250 μM). Test agent effects in presence of 10 μM G418 were compared to control wells on the plate containing a maximally effective concentration of G418 (typically 125-250 μM) made up in the same media. 25 ul of test agents/control solutions were transferred from the compound plate to the cell plate, which already contained 25 ul/well of cell plating media, using an Integra Viaflo 384. Cell plates were incubated with the compounds for 48 hours, at which time they were processed using Nanoluc luminescence Kit (Promega Nano-Glo Live Cell Assay System) to measure CFTR-PTC mutant translation readthrough. Luminescence was measured as follows. Cell plates were removed from the incubator and allowed to equilibrate to room temperature for 20 minutes. Media was removed from all wells and the plates were blotted to remove excess remaining volume. Nano-Glo Live Cell Substrate was diluted 1:20 in the appropriate amount of Nano-Glo LCS Dilution Buffer to accommodate the number of cell plates being tested. The substrate/dilution buffer mix was then diluted 1:3 with MEM media to make the appropriate volume for the number of plates being tested. The substrate/dilution buffer/OptiMEM mix was added across the Nanoluc testing cell plates and the plates were read for luminescence signal immediately. Test agent effects on CFTR translation readthrough was determined by normalizing any observed increase in luminescence induced by 48 hours pretreatment with test compound to the magnitude of luminescence increase produced by pretreatment with a maximally effective concentration of the reference readthrough enhancing agent G418 (125-250 μM).

[2] = system: recombinant human CFTR carrying the premature stop codon (PTC) mutation G542X; assay: CFTR-PTC mutant translation readthrough, Nanoluc tagged CFTR luminescence (G542X cell line); assay type: cell-based; details: in combination with G418, G542X cell line; for CFTR G542X ACTIVITY Fold 10 μM G-418: fold over 10 μM G-418; for EC50: 16HBE cells
Experimental: as §1

Row | SMILES | CFTR R1162X ACTIVITY Fold 10 μM G-418 [1] | EC50 [1] | CFTR G542X ACTIVITY Fold 10 μM G-418 [2] | EC50 [2]
1 | C[C@H]1CO[C@H](CO)CN1c1ncc(OCc2c(Cl)cccc2Cl)cn1 (racemic) | A′ (A′ = ≥10X) | 1000 to 10000 nM | A′ (A′ = ≥10X) | 1000 to 10000 nM
2 | FC(F)(F)c1cccc(Cl)c1COc1cnc(-n2ncc(-c3ccccn3)n2)nc1 | A′ (A′ = ≥10X) | < 1000 nM | A′ (A′ = ≥10X) | < 1000 nM
3 | O=C1OCC2CN(c3ncc(OCc4c(Cl)cccc4Cl)cn3)CCN12 (stereo not shown) | B′ (B′ = ≥5X to <10X) | 1000 to 10000 nM | A′ (A′ = ≥10X) | 1000 to 10000 nM
4 | Clc1cccc(Cl)c1COc1ccc(-n2cncn2)cc1 [1-[4-[(2,6-dichlorophenyl)methoxy]phenyl]-1,2,4-triazole] | A′ (A′ = ≥10X) | 1000 to 10000 nM | A′ (A′ = ≥10X) | 1000 to 10000 nM
5 | CC(=O)NC[C@H]1CN(c2ncc(OCc3c(C)cccc3C(F)(F)F)cn2)CCO1 | A′ (A′ = ≥10X) | 1000 to 10000 nM | A′ (A′ = ≥10X) | < 1000 nM
6 | OCC1CN(c2ncc(OCc3c(Cl)cccc3Cl)cn2)CCO1 (stereo not shown) [[4-[5-[(2,6-dichlorophenyl)methoxy]pyrimidin-2-yl]morpholin-2-yl]methanol] | A′ (A′ = ≥10X) | 1000 to 10000 nM | A′ (A′ = ≥10X) | < 1000 nM
7 | NCC1CN(c2ncc(OCc3c(Cl)cccc3Cl)cn2)CCO1 (stereo not shown) [[4-[5-[(2,6-dichlorophenyl)methoxy]pyrimidin-2-yl]morpholin-2-yl]methanamine] | A′ (A′ = ≥10X) | 1000 to 10000 nM | A′ (A′ = ≥10X) | < 1000 nM
8 | Cc1cccc(C(F)(F)F)c1COc1ccc(N2CC(CO)OC2=O)cc1 (stereo not shown) | A′ (A′ = ≥10X) | 1000 to 10000 nM | A′ (A′ = ≥10X) | 1000 to 10000 nM
9 | OCc1ncn(-c2ccc(OCc3c(Cl)cccc3OC(F)F)cc2)n1 | B′ (B′ = ≥5X to <10X) | 1000 to 10000 nM | A′ (A′ = ≥10X) | 1000 to 10000 nM
10 | OCc1cc(-c2ncc(OCc3c(Cl)cccc3Cl)cn2)[nH]n1 [Compound 252, [5-[5-[(2,6-dichlorophenyl)methoxy]pyrimidin-2-yl]-1H-pyrazol-3-yl]methanol] | B′ (B′ = ≥5X to <10X) | 1000 to 10000 nM | A′ (A′ = ≥10X) | 1000 to 10000 nM
11 | O[C@H]1CCN(c2ncc(OCc3c(Cl)cccc3Cl)cn2)C1 [(3S)-1-[5-[(2,6-dichlorophenyl)methoxy]pyrimidin-2-yl]pyrrolidin-3-ol] | A′ (A′ = ≥10X) | 1000 to 10000 nM | A′ (A′ = ≥10X) | 1000 to 10000 nM
12 | Cc1cccc(C(F)(F)F)c1COc1cnc(N2C(=O)CN(C)C2=O)nc1 | C′ (C′ = <5X) | > 10000 nM | B′ (B′ = ≥5X to <10X) | > 10000 nM
13 | C[C@@H](O)[C@@H]1CN(c2ncc(OCc3c(Cl)cccc3Cl)cn2)CCO1 (racemic) | A′ (A′ = ≥10X) | > 10000 nM | A′ (A′ = ≥10X) | 1000 to 10000 nM
14 | CCc1cccc(C(F)(F)F)c1COc1ccc(N2CC(CO)NC2=O)cc1 (stereo not shown) | A′ (A′ = ≥10X) | 1000 to 10000 nM | A′ (A′ = ≥10X) | < 1000 nM
15 | O=C1NC2(CC2)C(=O)N1c1ccc(OCc2c(Cl)cccc2C(F)(F)F)cc1 | A′ (A′ = ≥10X) | 1000 to 10000 nM | A′ (A′ = ≥10X) | < 1000 nM
16 | OCc1cnn(-c2ncc(OCc3c(Cl)cccc3Cl)cn2)n1 [[2-[5-[(2,6-dichlorophenyl)methoxy]pyrimidin-2-yl]triazol-4-yl]methanol] | A′ (A′ = ≥10X) | 1000 to 10000 nM | A′ (A′ = ≥10X) | 1000 to 10000 nM
